Assay results published in PubChem BioAssay AID1507 (NMMLSC, 2009).
Activity calls are given as the source filed them. No rule for the calls is given here.

System: S. aureus strains, alpha hemolysin production inhibition
Assay: inhibition of S. aureus alpha hemolysin production, S. aureus quorum sensing inhibitors, NM300, NM400, MRSA3757 (AID 1507)
Conditions: for inhibition: stronger effect = higher value
[1] = hemolysin inhibition, MRSA3757, at 12 µM
[2] = hemolysin inhibition, strain NM400, at 12 µM

| Compound | outcome (at 12 µM) | inhibition [1] | inhibition [2] | inhibition (at 6 µM) | inhibition (hemolysin inhibition, strain NM300, at 6 µM) | inhibition (at 30 µM) | inhibition (hemolysin inhibition, strain NM300, at 30 µM) |
| --- | --- | --- | --- | --- | --- | --- | --- |
| CC1CCCN(C(C(=O)Nc2ccc3c(c2)OCO3)c2ccccc2)C1 (stereo not given) | inactive; agr3 active | 15% | 55% | – | – | – | – |
| CC1CCCN(C(C(=O)Nc2ccc3c(c2)OCCO3)c2ccccc2)C1 (stereo not given) | inactive; agr3 active | 20% | 57% | – | – | – | – |
| CCc1oc2ccccc2c1C(=O)c1cc(Br)c(O)c(Br)c1 | – | – | – | 100% | 100% | – | – |
| Cc1c(Cl)cccc1Nc1ccccc1C(=O)O | – | – | – | – | – | 99% | 100% |
